In patent US12391683B2, “Therapeutic compounds and methods” (Actio Biosciences, Inc., priority 2022, dated 2025):

Molecular target: T1, TRPC3 channels (Homo sapiens, UniProt Q13507)
T1 construct: expressed in transfected cells; host or cells: HEK293
T1 sequence (Q13507 1-921): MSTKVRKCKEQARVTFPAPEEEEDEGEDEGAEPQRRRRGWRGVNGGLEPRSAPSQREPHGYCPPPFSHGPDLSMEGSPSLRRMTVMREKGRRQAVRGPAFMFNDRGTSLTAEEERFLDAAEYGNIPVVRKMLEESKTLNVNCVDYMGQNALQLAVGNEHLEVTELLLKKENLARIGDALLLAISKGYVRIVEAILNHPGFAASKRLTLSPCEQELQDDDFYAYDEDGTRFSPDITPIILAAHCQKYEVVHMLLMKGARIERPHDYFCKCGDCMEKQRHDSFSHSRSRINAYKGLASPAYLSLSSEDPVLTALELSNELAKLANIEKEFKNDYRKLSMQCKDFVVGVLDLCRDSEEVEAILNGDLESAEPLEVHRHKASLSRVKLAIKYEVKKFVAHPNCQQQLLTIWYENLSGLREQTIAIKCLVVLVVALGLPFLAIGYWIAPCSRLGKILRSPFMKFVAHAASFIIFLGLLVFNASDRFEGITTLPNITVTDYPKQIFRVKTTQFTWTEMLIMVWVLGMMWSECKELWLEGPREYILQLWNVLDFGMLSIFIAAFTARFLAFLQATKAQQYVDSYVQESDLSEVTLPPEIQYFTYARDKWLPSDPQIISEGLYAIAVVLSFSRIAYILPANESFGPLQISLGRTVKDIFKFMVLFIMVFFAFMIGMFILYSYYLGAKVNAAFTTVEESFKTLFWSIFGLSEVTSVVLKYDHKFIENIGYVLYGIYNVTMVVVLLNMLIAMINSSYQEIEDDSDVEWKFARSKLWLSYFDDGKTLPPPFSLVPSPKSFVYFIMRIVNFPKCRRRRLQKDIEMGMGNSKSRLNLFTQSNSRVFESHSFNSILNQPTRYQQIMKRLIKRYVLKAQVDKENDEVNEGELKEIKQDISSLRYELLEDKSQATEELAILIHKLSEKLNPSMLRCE
Test: TRP Family FLIPR Assay, TRPC3
Format: cell-based
Settings: HEK293 cells
Protocol: The compound of Example 5 was tested for selectivity against a panel of Human TRP family ion channels in a TRP Family FLIPR Assay as described below. • 1. TRPC3 channels (human TRPC3 variant 1 gene, expressed in HEK293 cells). • 2. TRPC4 channels (human TRPC4 gene, expressed in HEK293 cells). • 3. TRPC5 channels (human TRPC5 gene, expressed in HEK293 cells). • 4. TRPC6 channels (human TRPC6 gene, expressed in HEK293 cells). • 5. TRPM2 channels (human TRPM2 gene, transiently expressed in HEK293 cells). • 6. TRPM3 channels (human TRPM3 gene, transiently expressed in HEK293 cells). • 7. TRPM4 channels (human TRPM4 gene, expressed in CHO cells). • 8. […]
Data acquisition was performed via the FLIPR Control software supplied with the FLIPR System (MDS-AT) and data was analyzed using Microsoft Excel (Microsoft Corp., Redmond, WA) or GraphPad Prism. […]
[formula] where Base is the response at low concentrations of test article, Max is the maximum response at high concentrations, xhalf the EC50, or IC50, the concentration of test article producing either half-maximal activation or inhibition, and rate is the Hill coefficient. […] No assumptions about the fit parameters was made; the fit parameters were determined by the algorithm.
The effect of each test article was evaluated at eight (8) concentrations: 0.003, 0.01, 0.03, 0.1, 0.3, 1, 3 and 10 μM, n≤4 wells/concentration). […]

CC(C)(O)c1cnc(N2C[C@@]3(CC[C@@H](F)[C@](C)(Cn4cnc5ccc(C#N)cc54)C3)OC2=O)cn1 (single isomer, unassigned) [Example 5]
EC50 (agonist mode, vs EMAX of GSK1702934A 30 μM, read-out: EC50 hTRPC3): > 10 µM
IC50 (antagonist mode, activated with 15 μM GSK1702934A, 0.003-10 μM, read-out: IC50 hTRPC3): > 10 µM
